Consider 1 compound from PMC7999199, “Novel Cationic Meso-Arylporphyrins and Their Antiviral Activity against HSV-1” (Pharmaceuticals, 2021).

A short description of data set [1]: Micelle size of Pluronic F-127 formulations by dynamic light scattering. Type of data set: physicochemical. Conditions: Pluronic F-127 micelles, concentration 3·10^−6 M. Here is the method:
The size of obtained micelles for the compounds 3a,b was determined by the dynamic light scattering (DLS) method. The micelle size for compounds 3a,b was 17.53 nm and 14.69 nm, respectively, at concentrations of 3·10^−6 M (Figure 4a,b). It has previously been reported that a similar micelle size increased the efficiency and circulation of the encapsulated drug in the blood due to the small scale, which avoided the capture of nanoparticles by the reticular endothelial system.
NMR (^1H and ^13C) spectra of the test solutions in CDCl3 or (CD3OD) were recorded on a Bruker MSL-300 pulse Fourier transform spectrometer (Bruker, Billerica, MA, USA) at frequencies of 300.3 and 75.49 MHz, respectively, with internal deuterium stabilization. Tetramethylsilane was used as an external standard. IR spectra (4000–500 cm^–1) were recorded on Infralyum FT 02 Fourier spectrometer (Lumex Instruments Research and Production Company, Moscow, Russia) with a resolution of 1 cm^−1. Samples were prepared as KBr tablets. Dynamic light scattering was measured using Malvern Zetasizer Nano ZS (Malvern, United Kingdom). […] Mass spectra were recorded using an 1100 LCMSD liquid chromatograph (Agilent Technologies, Santa Clara, CA, USA) equipped with a mass spectrometric chemical ionization detector at atmospheric pressure (HIAD, APCI, ESI) and with a UV spectrophotometric detector (DAD). […]

In a further data set the test system is Vero cells. The data set can be described thus: Vero cell viability, MTT test, 72 h. Type of data set: cell-based, African green monkey. To be noted: MTT; for Viability % ±s.d.: +F127 (Pluronic F-127), Vero, 3 days. Here is the method:
Before testing antiviral activity, the effect of porphyrins dissolved in PBS and Pluronic F-127 on the viability of Vero cells was evaluated. Cells were incubated for 72 h using different concentrations of porphyrins (0.39–100 μM). Viability was assessed using the MTT test (Figure S13, Table S1, Supplementary Information). The viability of Vero cells depends on the porphyrins’ structure and formulation.
Cell viability was assessed by MTT reduction assay. Briefly, confluent monolayer Vero cells in 96-well plates (15000 cells/well) were incubated for 72 h with different concentrations of the compounds ranging from 0.39 µM to 100 µM in DMEM-1% FCS at 36.8 °C in 5% CO2 atmosphere. Next, cells were incubated for 1 h with 1.0 mg/mL of 3-(4,5-dimethylthiazol-2-y1)-2,5-diphenyltetrazolium bromide (MTT, PanEco, Moscow, Russia) at 36.8 °C, and then the solution was removed, and precipitated formazan was diluted in DMSO (PanEco, Moscow, Russia). The solution was read on a spectrophotometer at 540 nm. For each concentration, the average cell viability was calculated from the data of three experiments with three replicates each and was expressed as a percentage compared to the untreated cells (100%).
Table s1. Vero cell viability after exposure to 3a, 3b, TMEPyP compounds dissolved in PBS and Pluronic F-127. Different concen-
trations of compounds were applied to the cell monolayer and after incubation for 3 days, the number of living cells was calculated
in the MTT test. Each point represents the mean ± standard deviation of three experiments with […] each. n.d. –not done.
Compound Concentration, µM/L Viability % ±s.d.
A general note: Formazan colour is commonly taken as a measure of viable cells.

Broadly, the CC50 is the concentration giving 50% cytotoxicity. Higher therefore signals lower toxicity to the cells. Regarding `O=C(CCCCC[n+]1ccccc1)Oc1ccc(-c2c3nc(c(-c4ccc(OC(=O)CCCCC[n+]5ccccc5)cc4)c4ccc([nH]4)c(-c4ccc(OC(=O)CCCCC[n+]5ccccc5)cc4)c4nc(c(-c5ccc(OC(=O)CCCCC[n+]6ccccc6)cc5)c5ccc2[nH]5)C=C4)C=C3)cc1` [3b, 5,10,15,20-tetrakis(4-(6-pyridyl-n-hexanoyl)oxyphenyl)porphyrin tetrabromide], the “micelle size (DLS)” value in data set [1] was determined as 14.69 nm. The “Viability % ±s.d.” value in the data set on Vero cells (0.39 µM/L) is on record as 97.6±6.9%; with Vero cells (0.78 µM/L) it was 81.3±10.8%; with Vero cells (1.56 µM/L), 82.7±19.5%; in the data set with Vero cells (3.13 µM/L), 79.6±9.6%; with Vero cells (6.25 µM/L) it was 63.4±8.1%; with Vero cells (12.50 µM/L) it was 67.7±11.5%. For the same compound, the “Viability % ±s.d.” value in the data set with Vero cells (25 µM/L) is 58.4±4.4%; in the data set on Vero cells (50 µM/L), 41.3±2.7%; in the data set with Vero cells (100 µM/L), 25.0±1.9%. In the data set with Vero cells (Pluronic F-127 (F127) micellar formulation, Vero cells, 72 h), the CC50 came to 27 µM.
